Test results reported in US10696989B2, “Biological method for preparing heme iron not derived from porcine blood” (INTRON BIOTECHNOLOGY, INC., priority 2017, dated 2020).

Test system: iron-deficiency-anemia-induced animals
Assay: Effectiveness of heme iron salt on alleviating anemia in iron-deficiency-anemia-induced rats
Type: in vivo, Sprague-Dawley rats
Conditions: oral once a day, 0.1 mg Fe/500 μl saline
Protocol: The salt of the heme iron prepared according to the present invention was dissolved in saline and administered to iron-deficiency-anemia-induced animals, whereby the effectiveness of the salt of the heme iron prepared according to the present invention on alleviating anemia was evaluated. Specifically, thirty 7-week-old Sprague-Dawley rats (female) were divided into 3 groups of 10 rats per group, among which one group was fed with normal feed in an amount of 10% of body weight daily for one month (Group 1; control), and the remaining two groups were fed with iron-deficient feed in an amount of 10% of body weight daily for one month to induce iron-deficiency anemia (Group 2 and Group 3). After one month of feeding, it was confirmed that iron-deficiency anemia was induced in the individual rat belonging to Group 2 and Group 3. Then, one of the anemia-induced groups was orally administered once a day with saline alone (Group 2), and the other anemia-induced group was orally administered once a day with saline containing heme iron (0.1 mg Fe/500 μl saline) (Group 3). The administration continued for 30 days, and the occurrence of abnormal symptoms was monitored during the administration period. After 30 days of administration, blood was collected, and whether anemia was alleviated was evaluated. During 30 days of administration to Group 2 and Group 3, Group 1 was continuously fed with normal feed, and Group 2 and Group 3 were fed with iron-deficient feed. […]

[1] = female rats on iron-deficient feed, blood collected after 30 days

heme iron was tested, and the “Weight of rats on 30th day after administration” value (female rats on iron-deficient feed, 30 days) was 265.2 ± 1.1 g, the “Blood test: Hematocrit” value [1] was 35.8 ± 1.9% and the “Blood test: Hemoglobin content” value [1] was 14.2 ± 0.4 g/dL. For the same substance, the “Blood test: Mean corpuscular volume” value [1] was 48.2 ± 2.2 fL, the “Blood test: RBC” value [1] was 8.59 ± 0.1 ×10^6/μl and the “Alleviation of iron-deficiency anemia (conclusion)” value (30 days) was “effective at alleviating iron-deficiency anemia”. For the same substance, the “Occurrence of abnormal symptoms during the administration period” value (30 days) was “no abnormal symptoms”.
